Experimental data taken from PubChem BioAssay AID248 (DTP/NCI, 2004).
Values joined by “and” are separate entries in the source; they are usually repeats but may differ in a detail not shown here. Equal values may be shown once. Inconclusive results and toxic doses are left out. Rule as the data show it: active = T/C of 150% or more; inactive = T/C below 125%. Peptide text beside a SMILES is read from it. * marks the point of attachment. Cbz = O=C(OCc1ccccc1)*

Tested on: L1210 leukemia ip in BDF1 mice, survival T/C
Assay: NCI In Vivo Anticancer Drug Screen. Data for tumor model L1210 Leukemia (intraperitoneal) in B6D2F1 (BDF1) mice
Conditions: endpoint: mean survival time, higher = longer survival
In short: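 In this screen, tumor-bearing mice given compound are compared to those given vehicle, and their survival values are reported as a treated-to-control quotient.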

[1] = dose: 100.0 mg/kg/injection, schedule: Q01DX001 (ip), vehicle: saline
[2] = dose: 200.0 mg/kg/injection, schedule: Q01DX001 (ip), vehicle: saline
[3] = dose: 400.0 mg/kg/injection, schedule: Q01DX001 (ip), vehicle: saline
[4] = dose: 25.0 mg/kg/injection, schedule: Q04DX002 (ip), vehicle: Klucel (hydroxypropylcellulose) (HPC)
[5] = dose: 50.0 mg/kg/injection, schedule: Q04DX002 (ip), vehicle: Klucel (hydroxypropylcellulose) (HPC)
[6] = dose: 100.0 mg/kg/injection, schedule: Q04DX003 (ip), vehicle: saline with Tween-80
[7] = dose: 200.0 mg/kg/injection, schedule: Q04DX003 (ip), vehicle: saline with Tween-80
[8] = dose: 400.0 mg/kg/injection, schedule: Q04DX003 (ip), vehicle: saline with Tween-80
[9] = dose: 100.0 mg/kg/injection, schedule: Q01DX009 (ip), vehicle: saline
[10] = dose: 100.0 mg/kg/injection, schedule: Q04DX003 (ip), vehicle: saline
[11] = dose: 200.0 mg/kg/injection, schedule: Q01DX009 (ip), vehicle: saline
[12] = dose: 200.0 mg/kg/injection, schedule: Q04DX003 (ip), vehicle: saline
[13] = dose: 400.0 mg/kg/injection, schedule: Q01DX009 (ip), vehicle: saline
[14] = dose: 400.0 mg/kg/injection, schedule: Q04DX003 (ip), vehicle: saline
[15] = dose: 75.0 mg/kg/injection, schedule: Q01DX001 (ip), vehicle: saline
[16] = dose: 150.0 mg/kg/injection, schedule: Q01DX001 (ip), vehicle: saline
[17] = dose: 100.0 mg/kg/injection, schedule: Q01DX009 (ip), vehicle: Klucel (hydroxypropylcellulose) (HPC)
[18] = dose: 100.0 mg/kg/injection, schedule: Q04DX003 (ip), vehicle: Klucel (hydroxypropylcellulose) (HPC)
[19] = dose: 200.0 mg/kg/injection, schedule: Q04DX003 (ip), vehicle: Klucel (hydroxypropylcellulose) (HPC)
[20] = dose: 400.0 mg/kg/injection, schedule: Q04DX003 (ip), vehicle: Klucel (hydroxypropylcellulose) (HPC)
[21] = dose: 100.0 mg/kg/injection, schedule: Q04DX002 (ip), vehicle: saline
[22] = dose: 200.0 mg/kg/injection, schedule: Q04DX002 (ip), vehicle: saline
[23] = dose: 400.0 mg/kg/injection, schedule: Q04DX002 (ip), vehicle: saline
[24] = dose: 100.0 mg/kg/injection, schedule: Q01DX009 (ip), vehicle: saline with Tween-80
[25] = dose: 200.0 mg/kg/injection, schedule: Q01DX009 (ip), vehicle: saline with Tween-80
[26] = dose: 100.0 mg/kg/injection, schedule: Q01DX001 (ip), vehicle: carboxymethylcellulose (CMC)
[27] = dose: 200.0 mg/kg/injection, schedule: Q01DX001 (ip), vehicle: carboxymethylcellulose (CMC)

Measured: T/C

CC1C(C(N)=O)C(=O)OC1(C)C (stereo not drawn)
inactive: [1] 89 % of control | [2] 104 % of control | [3] 98 % of control

O=S(c1ccccc1)N(OCc1ccccc1)S(=O)c1ccccc1 (stereo not drawn)
inactive: [4] 98 % of control | [5] 104 % of control | dose: 100.0 mg/kg/injection, schedule: Q04DX002 (ip), vehicle: Klucel (hydroxypropylcellulose) (HPC) 95 % of control

O=C(/C=C/C(=O)N1CCOCC1)N1CCOCC1
inactive: [6] 100 % of control | [7] 104 % of control | [8] 116 % of control

CC(=N)/C(C(=O)NC1CCCCC1)=C(/C)O
inactive: [9] 101 % of control | [10] 104 % of control | [11] 103 % of control | [12] 109 % of control | [13] 93 % of control | [14] 96 % of control

Cc1c(Cl)cccc1N=C=S
inactive: [15] 95 % of control | [16] 97 % of control | dose: 300.0 mg/kg/injection, schedule: Q01DX001 (ip), vehicle: saline 100 % of control

Cc1cccc(C)c1NC(=O)c1c(Cl)c(Cl)c(Cl)c(Cl)c1C(=O)O
inactive: dose: 25.0 mg/kg/injection, schedule: Q01DX009 (ip), vehicle: Klucel (hydroxypropylcellulose) (HPC) 95 % of control | dose: 50.0 mg/kg/injection, schedule: Q01DX009 (ip), vehicle: Klucel (hydroxypropylcellulose) (HPC) 87 % of control | [17] 94 % of control and 88 % of control | [18] 102 % of control | [19] 102 % of control | [20] 107 % of control

O=CC(O)C(O)C(O)C(O)CO (stereo not drawn) (tested in a mixture with another compound)
inactive: dose: 6.25 mg/kg/injection, schedule: Q04DX002 (ip), vehicle: saline 95 % of control | dose: 12.5 mg/kg/injection, schedule: Q04DX002 (ip), vehicle: saline 100 % of control | dose: 25.0 mg/kg/injection, schedule: Q04DX002 (ip), vehicle: saline 103 % of control and 91 % of control | dose: 75.0 mg/kg/injection, schedule: Q04DX002 (ip), vehicle: saline 95 % of control | [21] 103 % of control | dose: 150.0 mg/kg/injection, schedule: Q04DX002 (ip), vehicle: saline 95 % of control | [22] 99 % of control | dose: 300.0 mg/kg/injection, schedule: Q04DX002 (ip), vehicle: saline 106 % of control | [23] 102 % of control

CC1CN1CO (stereo not drawn)
inactive: [15] 109 % of control

CC(C)(Cl)CCl
inactive: [24] 106 % of control | [6] 101 % of control | [25] 89 % of control | [7] 98 % of control

COC(=O)C1C2CCc3cc(OC)ccc3C2=CCC1C(OC)OC (stereo not drawn)
inactive: [18] 89 % of control | [19] 89 % of control | [20] 89 % of control

COP1(=O)OCC(C)CO1 (stereo not drawn)
inactive: [1] 102 % of control | [2] 93 % of control | [3] 98 % of control

c1ccc(CN=C2c3ccccc3C3(c4ccccc4)C2N3Cc2ccccc2)cc1 (stereo not drawn)
inactive: [17] 103 % of control | [18] 98 % of control | dose: 200.0 mg/kg/injection, schedule: Q01DX009 (ip), vehicle: Klucel (hydroxypropylcellulose) (HPC) 103 % of control | [19] 101 % of control | dose: 400.0 mg/kg/injection, schedule: Q01DX009 (ip), vehicle: Klucel (hydroxypropylcellulose) (HPC) 103 % of control | [20] 97 % of control

CCCC(NC)C(CC)CN (stereo not drawn)
93 % of control and 242 % of control: [27]
inactive: dose: 50.0 mg/kg/injection, schedule: Q01DX001 (ip), vehicle: carboxymethylcellulose (CMC) 105 % of control and 120 % of control | [15] 97 % of control | dose: 88.0 mg/kg/injection, schedule: Q01DX001 (ip), vehicle: saline 109 % of control | [26] 104 % of control | dose: 133.0 mg/kg/injection, schedule: Q01DX001 (ip), vehicle: saline 101 % of control | [16] 97 % of control | [2] 101 % of control

O=C(CNNc1ccc([N+](=O)[O-])cn1)Nc1ccc(S(=O)(=O)c2ccc(NC(=O)CNNc3ccc([N+](=O)[O-])cn3)cc2)cc1
inactive: dose: 10.0 mg/kg/injection, schedule: Q01DX Z (ip), vehicle: methylcellulose (MC) 91 % of control | dose: 15.0 mg/kg/injection, schedule: Q01DX Z (ip), vehicle: methylcellulose (MC) 95 % of control | dose: 22.5 mg/kg/injection, schedule: Q01DX Z (ip), vehicle: methylcellulose (MC) 94 % of control

CC(C)(C)NP(=O)(NC(C)(C)C)c1ccc([N+](=O)[O-])cc1
inactive: dose: 100.0 mg/kg/injection, schedule: Q04DX003 (ip), vehicle: acetone 100 % of control | dose: 400.0 mg/kg/injection, schedule: Q04DX003 (ip), vehicle: acetone 93 % of control

CNc1ccc(N=Nc2ccncc2C)cc1C
inactive: [6] 102 % of control | [7] 96 % of control | [8] 96 % of control

CC(=O)CC(C)=NCCN=C(C)CC(C)=O
inactive: [24] 91 % of control | [25] 94 % of control | dose: 400.0 mg/kg/injection, schedule: Q01DX009 (ip), vehicle: saline with Tween-80 92 % of control

NC(CCl)=NCC1CCCC1
inactive: dose: 12.5 mg/kg/injection, schedule: Q04DX002 (ip), vehicle: Klucel (hydroxypropylcellulose) (HPC) 96 % of control | [4] 96 % of control | [5] 96 % of control

O=C1NC(c2ccccc2)(c2ccccc2)C(=O)N1CNc1ccc(Br)cc1
inactive: [18] 89 % of control | [19] 89 % of control | [20] 92 % of control

Cc1ccc(S(=O)(=O)C2CCCC/C2=N\Nc2ccc([N+](=O)[O-])cc2[N+](=O)[O-])cc1 (stereo not drawn)
inactive: dose: 100.0 mg/kg/injection, schedule: Q01DX001 (ip), vehicle: other 105 % of control | dose: 200.0 mg/kg/injection, schedule: Q01DX001 (ip), vehicle: other 103 % of control | dose: 400.0 mg/kg/injection, schedule: Q01DX001 (ip), vehicle: other 96 % of control

C=CCc1ccc(OC(=O)Nc2cccc(C)c2)c(OC)c1
inactive: dose: 50.0 mg/kg/injection, schedule: Q01DX009 (ip), vehicle: saline with Tween-80 98 % of control | [24] 112 % of control | dose: 100.0 mg/kg/injection, schedule: Q04DX002 (ip), vehicle: saline with Tween-80 99 % of control | [25] 101 % of control and 102 % of control | dose: 200.0 mg/kg/injection, schedule: Q04DX002 (ip), vehicle: saline with Tween-80 89 % of control

CC/C=C1\CCOC1=O
inactive: [21] 102 % of control | [22] 102 % of control | [23] 115 % of control

C=CCOC(=O)Nc1ccc(S(=O)(=O)CC)cc1
inactive: [26] 94 % of control | [27] 102 % of control | dose: 400.0 mg/kg/injection, schedule: Q01DX001 (ip), vehicle: carboxymethylcellulose (CMC) 91 % of control

Cc1ccc(C)c(CCCCS(N)(=O)=O)c1
inactive: [18] 100 % of control | [19] 104 % of control | [20] 100 % of control

COc1ccc(CN2CCCN(Cc3ccc(OC)cc3OC)C2c2ccc(F)cc2)c(OC)c1
inactive: dose: 50.0 mg/kg/injection, schedule: Q01DX001 (ip), vehicle: saline 94 % of control | [1] 89 % of control | [2] 94 % of control | [3] 100 % of control

Cc1ccc2c(c1)P(=O)(O)c1cc(F)ccc1O2
inactive: dose: 50.0 mg/kg/injection, schedule: Q01DX009 (ip), vehicle: saline 105 % of control | [9] 112 % of control | [11] 112 % of control | [13] 108 % of control

COC(=O)CNC(=O)C(CC(C)C)NC(=O)C(CC(C)C)NC(=O)C(C)NC(=O)OCc1ccccc1 (stereo not drawn) (Cbz-ALLG-OMe; configuration not given here)
inactive: [10] 94 % of control | [12] 98 % of control | [14] 98 % of control
